Measurements from patent US20090247520A1, “INHIBITORS OF ANTIGEN RECEPTOR-INDUCED NF-kappa B ACTIVATION” (The Burnham Institute for Medical Research, priority 2008, published 2009).
Like-named read-outs stand apart in the source and are kept apart here.

Legend:
[1] = test system: anti-CD3/CD28-induced lymphocyte proliferation; assay: Lymphocyte proliferation assay (3H-Thymidine), anti-CD3/CD28-stimulated splenocytes; type: cell-based; details: mouse splenocytes; for IC50: 3H-Thymidine incorporation, read-out: IC50, lymphocyte proliferation, T-cells (anti-CD3/CD28)
Procedure: (§1) (A) Isolated mouse primary splenocytes were cultured with anti-CD3/anti-CD28 (0.3 μg/mL each) or anti-IgM (3 μg/mL) for 48 h, then 1 μCi 3H-Thymidine was added for 12 h and incorporation into DNA was measured, expressing data as fold increase above unstimulated cells (mean±SD; n=3). (B-D) Primary splenocytes were pretreated for 2 h with IKK inhibitor, BMS-335541 (B), PKC inhibitor, Bisindolylmaleimide I (C) or CID-2858522 (D), then stimulated with anti-CD3/anti-CD28 (0.3 μg/mL) or anti-IgM (3 μg/mL) for 48 h. 1 μCi 3H-Thymidine was added for 12 h and incorporation into DNA was measured, expressing data as percent inhibition relative to control cells treated with DMSO (mean±SD; n=3). […] Levels of TRAF1 and β-actin were assessed by immunoblotting, quantified by densitometry and TRAF1 results reported relative to control cells, after normalization for β-actin (mean±SD). […] Then nuclear extracts were prepared and p65-DNA-binding activity was measured (mean±SD; n=3).
(§2) Lymphocyte proliferation assay. Splenocytes were isolated from normal Balb/c mice and red blood cells were removed using a mouse erythrocyte lysis kit (R&D Systems, Minneapolis, Minn.). Splenocytes were suspended in RMPI-1640 medium supplemented with 10% FBS, 1% penicillin-streptomycin, and 1 mM L-glutamine. Cells were diluted into 2×10^6 cells/mL and 200 μL were seeded in round bottom 96-well plates and incubated at 37° C. in 5% CO2 and 95% relative humidity. Cells were pretreated with compounds or DMSO diluted in medium for 2 h, then treated with anti-CD3/anti-CD28 or anti-IgM antibodies for 48 h, prior to adding 1 μCi [^3H]-Thymidine for (MP Biomedical, Solon, Ohio) 12 h. Cells were transferred to fiberglass filters (Wallac, Turku, Finland) using a FilterMate Harvester (Perkin Elmer), dried, and [^3H]-incorporation into DNA was quantified by scintillation counting Betaplate Scint (Perkin Elmer) and a MicroBetaTrilux LCS and luminescence counter (Perkin Elmer).

Jurkat cells = assay: Jurkat cell viability (ATPlite); type: cell-based; details: 24 h
Procedure: (§3) FIG. 4A: Jurkat T cells were treated by anti-cd3/anti-cd28/anti-mouse IgG (6 μg/mL) or PMA/Ion (10 ng/mL) for 24 h, IL-2 production in medium was measured by ELISA kit. FIG. 4B-E: Jurkat T cells were pretreated by IKK inhibitor (B), PKC inhibitor (C), CID-2858522 (D) for 2 h and then treated by anti-cd3/anti-cd28/anti-mouse IgG (6 μg/mL) or PMA/Ion (10 ng/mL) for 24 h, IL-2 production in medium was measured by ELISA kit; E, Jurkat cells were treated by CID-2858522, PKC inhibitor and IKK inhibitor for 24 h, cell viability was measured by ATPlite kit.
Cell viability assay. Cell viability was estimated based on cellular ATP levels, measured using ATPlite kit (Perkin Elmer). Cells at a density of 10^5/mL were seeded at 90 μL per well in 96-well white plates and cultured overnight. Compounds were added (5 μL in medium) to wells and cells were cultured for […], Finally, 50 μL ATPlite solution was added to each well and luminescence activity was read using a luminometer (LJL Biosystems, Sunnyvale, Calif.).

[2] = test system: PMA/Ionomycin-induced IL-2 production; assay: IL-2 production by PMA/Ionomycin-stimulated Jurkat T cells (ELISA); type: cell-based, human
Procedure: as §3
In T cells, the antigen receptor stimulates several signal transduction pathways that converge on the IL-2 gene promoter, including NF-κB, NF-AT, and AP-1. For evaluating the effects of CID-2858522 on TCR-initiated, NF-κB-driven events in lymphocytes, we employed Jurkat T-leukemia cells, which have been utilized extensively as model for studying TCR-signaling leading to IL-2 gene expression. For these experiments, Jurkat cells were stimulated with either anti-CD3 (to activate the TCR complex) and anti-CD28 (co-stimulator) or with PMA/Ionomycin, in the presence or absence of CID-2858522, IKK inhibitor, or PKC inhibitor, then IL-2 production was measured 24 hrs later in culture supernatants. […] In contrast, CID-2858522 suppressed IL-2 production by CD3/CD28- and PMA/Ionomycin-stimulated Jurkat cells by approximately half (IC50) at concentrations <10 μM (FIG. 4D).
Lymphokine measurements. Human IL-2 or IL-8 levels in culture medium were measured by Enzyme-Linked Immunosorbent Assays (ELISAs), using BD OptEIA ELISAs (BD Biosciences, San Diego, Calif.), according to the manufacturer's protocol, using 96-well ELISA plates (BD Biosciences) and measuring absorbance within 30 minutes of initiating reactions using a SpectraMax 190 spectrophotometer (Molecular Devices).

[3] = test system: anti-IgM-induced lymphocyte proliferation; assay: Lymphocyte proliferation assay (3H-Thymidine), anti-IgM-stimulated splenocytes; type: cell-based, mouse; details: for IC50: mouse splenocytes, 3H-Thymidine incorporation, read-out: IC50, lymphocyte proliferation, B-cells (anti-IgM)
Procedure: as §1, §2

SMILES | effect on anti-CD3/CD28-induced lymphocyte proliferation [1] | cytotoxicity to Jurkat cells (Jurkat cells) | IC50 ([2]; Homo sapiens, PMA/Ionomycin-stimulated Jurkat cells, 24 h, read-out: IC50, suppression of IL-2 production (by approximately half)) [nM] | IC50 ([3]; Lymphocyte) [nM] | IC50 ([1]; Lymphocyte) [nM] | suppression of PMA/Ionomycin-induced IL-2 production ([2]; Jurkat) | suppression of lymphocyte proliferation ([3]; concentrations of 5 μM, stimulus not specified) | IC50 [1] [nM] | suppression of IL-2 production ([2]; PMA/Ionomycin Jurkat, PKC inhibitor <0.5 μM) | IC50 [3] [nM]
Cc1cc2nc(NCCCO)n(CC(=O)c3cc(C(C)(C)C)c(O)c(C(C)(C)C)c3)c2cc1C [Compound 1, 2-(2-(3-Hydroxypropylamino)-5,6-dimethyl-1H-benzo[d]imidazol-1-yl)-1-(3,5-di-tert-butyl-4-hydroxyphenyl)ethanone] | minimal effect | not due to cytotoxicity | < 10000 | 2000 | – | – | – | – | – | –
Cc1ccc2nc(NCCN)c3ncc(C)n3c2c1 [BMS-345541, reference compound] | – | not due to cytotoxicity | – | ~2000 | ~4000 | partially suppressed | essentially completely suppressed | – | – | –
CN(C)CCCn1cc(C2=C(c3c[nH]c4ccccc34)C(=O)NC2=O)c2ccccc21 [Bisindolylmaleimide I, reference compound] | – | not due to cytotoxicity | – | – | – | – | – | 11500 | 80-90% | 200
